Test results taken from patent publication US9211244B2, “Method for anti-skin aging using caffeamide derivative” (CHINA MEDICAL UNIVERSITY, priority 2013, dated 2015).

Columns and labels:
[1] = Scavenging test of DPPH free radical; type: biochemical; details: for Scavenging efficiency (%): 200 μM DPPH, 30 minutes
Protocol: DPPH (1,1-diphenyl-2-picrylhydrazyl) was used as a source of free radicals to examine the scavenging efficiency of the caffeamide derivatives prepared in Example 1 on free radicals. […] The mixtures were placed in the dark at room temperature for 30 minutes and its absorbance at 517 nm was measured by an enzyme immunoassay analyzer. In this experiment, 50 volume % propanediol was used to replace extracts and to be a control group, ascorbic acid (vitamin C) was used as a positive control group, and methanol was used to replace DPPH as the background value. The scavenging efficiency of caffeamide derivatives on free radicals was examined by the formula blow, and the results are shown in Table 2, FIG. 1a, and FIG. 1b. Scavenging efficiency(%)=[the absorbance of the control group−the absorbance of the experimental group/the absorbance of the control group]×100%.

[2] = test system: human fibroblast Hs68 cells; assay: Scavenging test of ROS free radicals in UVB-irradiated cells; type: cell-based; details: UVB 80 mJ/cm^2, 24 hours
Protocol: After incubated in an incubator (37° C., 5% CO2) for 24 hours, the ROS level was examined.

p-ERK = assay: Inhibition test of the phosphorylation of MAPK, western blot; type: cell-based, human; details: 10 μM; UVB 40 mJ/cm^2
Protocol: (§1) It has been known that the skin photo-aging caused by UV rays will increase the content of MMPs in the dermis by the phosphorylation of MAPK. In this experiment, the effect of caffeamide derivative on the phosphorylation of MAPK in the cells was analyzed by western blotting.
(§2) After being treated with the compound of formula (2) prepared in Example 1, the protein expression levels of the MAPKs induced by UVB were inhibited in a concentration dependent way. Specifically, when the concentration of the compound of formula (2) was 10 μM, the expression level of P-ERK was 1.1 times as compared to that of the untreated cells. When the concentration of the compound of formula (2) was 5 μM, the expression levels of p-JNK and p-p38 were both 1.1 times as compared to that of the untreated cells.

p-JNK = assay: as above; type: cell-based, human; details: 5 μM; UVB 40 mJ/cm^2
Protocol: as §1, §2

p-p38 = assay: as above; type: cell-based, human; details: 5 μM; UVB 40 mJ/cm^2
Protocol: as §1, §2

Smad3 = assay: Promotion test of the expression of collagen, western blot; type: cell-based, human; details: 25 μM; UVB 40 mJ/cm^2
Protocol: (§3) It has been known that Smad3 protein can promote the expression level of procollagen-1, and Smad7 protein can inhibit the expression level of Smad3 protein. After cells were irradiated with UV rays, the expression levels of procollagen-1 and Smad3 protein will reduce and the expression level of Smad7 protein will increase. Therefore, in this experiment, the expression levels of intracellular procollagen-1 protein, Smad3 protein and Smad7 protein were analyzed by western blotting.
(§4) Specifically, when the concentration of the compound of formula (2) was 25 μM, the protein expression level of Smad7 was 1.1 times as compared to that of the untreated cells.

Smad7 = assay: as above; type: cell-based, human; details: 25 μM; UVB 40 mJ/cm^2
Protocol: as §3, §4

procollagen-1 = assay: as above; type: cell-based, human; details: 25 μM; UVB 40 mJ/cm^2
Protocol: as §3, §4

[3] = test system: human fibroblast Hs68 cells; assay: Cellular toxicity evaluation, MTT assay; type: cell-based; details: 24 hours
Protocol: MTT (3-(4,5-dimethylthiazol-2-yl)-2,5-diphenyl tetrazolium bromide) assay was used to determine the cellular toxicity of the caffeamide derivatives described herein. First, different concentrations (0 μM to 100 μM) of the compounds of formula (1) or formula (2) prepared in Example 1 of the present invention were added, respectively, into a 96-well microplate which containing human fibroblast Hs68 cells (1×10^4 cells per well). After the cells were incubated in an incubator at 37° C. and 5% CO2 for 24 hours, 15 μl of MTT solution (0.5 mg/ml; dissolved in PBS) was added into the microplate and the human fibroblast Hs68 cells were incubated for 3 hours. Next, 75 μl SDS (sodium dodecyl sulfate) solution (10% SDS was dissolved in 0.01N HCl) was added into the microplate. After the cells were maintained for 24 hours, the absorbances of each well were measured at a wavelength of 570 nm by an enzyme immunoassay analyzer. Finally, the cell survival rate was calculated by the following formula to observe the cellular toxicity of compounds. The results are shown in Table 5, FIG. 10a and FIG. 10b. Cell survival rate(%)=absorbance of the experimental group/absorbance of the control group.

skin of white rabbit = assay: Primary skin irritation test; type: in vivo, New Zealand white rabbit
Protocol: First, 20 mg (low dosage) and 80 mg or 100 mg (high dosage) of the compounds of formula (1) and formula (2) prepared in Example 1 were dissolved in 1 ml of 40% PEG-400 solution, respectively. Next, a New Zealand white rabbit was fixed on a rabbit cage and the fur on its back was clipped. A color pen was used to draw six squares (2.5 cm×2.5 cm for each square) of smearing region. The six squares were divided into keratin intact group and keratin abraded group. In the keratin abraded group, a sterile needle was used to scrape four parallel lines inside the squares on the back of the white rabbit to damage the keratin layer, but without bleeding. Low dosage and high dosage of compounds of formula (1) or formula (2) were smeared inside the squares evenly. After 24 hours, the skin of white rabbit was wiped with physiologic saline solution to remove compounds of formula (1) or formula (2). […] The observation time should be extended when the irritation was shown.
The statistical method of this test was analyzed by ANOVA (analysis of variance) and Student's t-test; p<0.05 indicates a statistical significance. Each experiment was performed over three times, and the results are shown by the standard error of the mean (mean±standard error). The results are shown in Table 7A, Table 7B, FIGS. 11a to 11d, and FIGS. 12a to 12d.

For `O=C(C=Cc1ccc(O)c(O)c1)NCCc1ccc(Br)cc1` [Compound of formula (2)], the “Scavenging efficiency (%)” value ([1]; 1 μM) was 6.4 ± 4.9%, the “Scavenging efficiency (%)” value ([1]; 5 μM) was 12.9 ± 3.5% and the “Scavenging efficiency (%)” value ([1]; 10 μM) was 26.5 ± 0.9%. The “Scavenging efficiency (%)” value ([1]; 25 μM) was 62.1 ± 2.9%, the “Scavenging efficiency (%)” value ([1]; 50 μM) was 96.6 ± 0.4% and the EC50 ([1]; DPPH free radical scavenging, read-out: SC50 (the source's name)) was 20 ± 1 µM. For the same molecule, the “Concentration of ROS (times compared to the untreated cells)” value ([2]; 5 μM) was 1.0 ± 0.09 times, the “Concentration of ROS (times compared to the untreated cells)” value ([2]; 10 μM) was 0.9 ± 0.02 times and the “Concentration of ROS (times compared to the untreated cells)” value ([2]; 10 μM, listed as compound of formula (2)) was 0.9 times. The “Concentration of ROS (times compared to the untreated cells)” value ([2]; 25 μM) was 0.8 ± 0.04 times, the “Concentration of ROS (times compared to the untreated cells)” value ([2]; 25 μM, listed as compound of formula (2)) was 0.8 times and the “expression level of p-ERK as compared to that of the untreated cells” value (p-ERK) was 1.1 times. For the same molecule, the “expression level of p-JNK as compared to that of the untreated cells” value (p-JNK) was 1.1 times, the “expression level of p-p38 as compared to that of the untreated cells” value (p-p38) was 1.1 times and the “protein expression level of Smad3 inhibited by UVB, reversed to” value (Smad3) was 0.5 times. The “protein expression level of Smad7 as compared to that of the untreated cells” value (Smad7) was 1.1 times, the “protein expression level of procollagen-1 decreased by UVB, reversed to” value (procollagen-1) was 0.4 times and the “Cell survival rate (%)” value ([3]; 5 μM) was 92.0 ± 1.0%. The “Cell survival rate (%)” value ([3]; 10 μM) was 90.4 ± 2.3%, the “Cell survival rate (%)” value ([3]; 25 μM) was 89.7 ± 2.8% and the “Cell survival rate (%)” value ([3]; 50 μM) was 86.1 ± 1.4%. The “primary irritation index (PII), mean ± standard error” value (skin of white rabbit; 20 mg, 24 hour, abraded skin) was 0.0 ± 0.0, the “primary irritation index (PII), single rabbits 1-3” value (skin of white rabbit; 20 mg, 24 hour, abraded skin) was 0 and the “primary irritation index (PII), mean ± standard error” value (skin of white rabbit; 20 mg, 24 hour, intact skin) was 0.0 ± 0.0. For the same molecule, the “primary irritation index (PII), single rabbits 1-3” value (skin of white rabbit; 20 mg, 24 hour, intact skin) was 0, the “primary irritation index (PII), mean ± standard error” value (skin of white rabbit; 20 mg, 72 hour, abraded skin) was 0.0 ± 0.0 and the “primary irritation index (PII), single rabbits 1-3” value (skin of white rabbit; 20 mg, 72 hour, abraded skin) was 0. The “primary irritation index (PII), mean ± standard error” value (skin of white rabbit; 20 mg, 72 hour, intact skin) was 0.0 ± 0.0, the “primary irritation index (PII), single rabbits 1-3” value (skin of white rabbit; 20 mg, 72 hour, intact skin) was 0 and the “primary irritation index (PII), mean ± standard error” value (skin of white rabbit; 80 mg, 24 hour, abraded skin) was 0.7 ± 0.6. For the same molecule, the “primary irritation index (PII), mean ± standard error” value (skin of white rabbit; 80 mg, 24 hour, intact skin) was 0.0 ± 0.0, the “primary irritation index (PII), single rabbits 1-3” value (skin of white rabbit; 80 mg, 24 hour, intact skin) was 0 and the “primary irritation index (PII), mean ± standard error” value (skin of white rabbit; 80 mg, 72 hour, abraded skin) was 0.3 ± 0.6. The “primary irritation index (PII), mean ± standard error” value (skin of white rabbit; 80 mg, 72 hour, intact skin) was 0.0 ± 0.0 and the “primary irritation index (PII), single rabbits 1-3” value (skin of white rabbit; 80 mg, 72 hour, intact skin) was 0.
